Experimental data: patent US20090325933A1, “Pyrimidinone Derivatives and Their Use as a Drug” (Ipsen Pharma S.A.S., priority 2006, published 2009)
Read-outs that look alike come from different tables or passages of the source.

Target: T1, human CB2 receptors (Homo sapiens, UniProt P34972)
T1 construct: expressed in transfected cells; membrane preparations
Assay: Affinity for human CB2 cannabinoid receptors: inhibition of [3H]-CP55940 binding to transfected CHO-K1 cell membranes
Details: inhibition constant value range, [3H]-CP55940 1 nM, Cheng-Prusoff
Description: The affinity of the compounds of the present invention for the different sub-types of cannabinoid receptors was measured according to procedures analogous to those described hereafter for the human CB2 receptor.
Study of the Affinity of the Compounds for the Human CB2 Cannabinoid Receptors:
The affinity of the compounds of the invention for the human CB2 receptors is determined by measuring the inhibition of the binding of [^3H]-CP55940 to transfected CHO-K1 cell membrane preparations.
The CHO-K1 cells expressing the human CB2 receptors in stable fashion are cultured in an RPMI 1640 medium containing 10% foetal calf serum, 2 mM of glutamine, 100 U/ml of penicillin, 0.1 mg/ml of streptomycin and 0.5 mg/ml of G418. The cells are collected with 0.5 mM of EDTA and centrifuged at 500 g for 5 minutes at 4° C. The pellet is re-suspended in phosphate buffered saline medium (PBS) and centrifuged at 500 g for 5 minutes at 4° C. The pellet is re-suspended in a Tris 50 mM buffer medium at pH 7.4 and centrifuged at 500 g for 5 minutes at 4° C. The cells are lysed by sonication and centrifuged at 39,000 g for 10 minutes at 4° C. The pellet is re-suspended in the Tris 50 mM buffer medium at pH 7.4 and centrifuged at 50,000 g for 10 minutes at 4° C. The membranes obtained in this last pellet are stored at −80° C.
Measurement of the competitive inhibition of the binding of the [^3H]-CP55940 to the CB2 receptors is carried out in duplicate using 96-well polypropylene plates. The cell membranes (10 μg of proteins/well) are incubated with the [^3H]-CP55940 (1 nM) for 60 minutes at 25° C. in a Tris-HCl 50 mM buffer medium, pH 7.4, comprising 0.1% bovine serum albumin (BSA), 5 mM of MgCl2, and 50 μg/ml of bacitracin.
The bound [^3H]-CP55940 is separated from the free [^3H]-CP55940 by filtration through GF/C glass fibre filter plates (Unifilter, Packard) pre-impregnated with 0.1% polyethylenimine (P.E.I.), using a Filtermate 196 (Packard). The filters are washed with Tris-HCl 50 mM buffer, pH 7.4 at 0-4° C. and the radioactivity present is determined using a counter (Packard Top Count).
The specific binding is obtained by subtracting the non-specific binding (determined in the presence of 0.1 μM of WIN55212-2 from the total binding). The data are analyzed by computer-assisted non-linear regression (MDL). For each test, a Cheng-Prusoff correction is made in order to convert the IC50 to the inhibition constant, Ki.
where [L] is the concentration of the radioligand used in the test and Kd is the radioligand equilibrium dissociation constant.

T1 sequence (P34972 whole entry): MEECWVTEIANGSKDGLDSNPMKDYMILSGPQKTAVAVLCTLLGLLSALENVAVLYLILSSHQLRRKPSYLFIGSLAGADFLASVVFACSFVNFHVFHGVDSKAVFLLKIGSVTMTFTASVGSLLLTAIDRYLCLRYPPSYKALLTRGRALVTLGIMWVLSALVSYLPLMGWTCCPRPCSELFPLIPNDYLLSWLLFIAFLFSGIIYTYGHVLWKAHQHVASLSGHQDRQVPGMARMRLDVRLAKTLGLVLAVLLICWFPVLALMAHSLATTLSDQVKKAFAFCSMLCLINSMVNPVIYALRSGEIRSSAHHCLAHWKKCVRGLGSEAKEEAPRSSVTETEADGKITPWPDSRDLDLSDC

O=c1c2sccc2nc(-c2ccc(C3CCCCC3)cc2)n1CCC1CCCCC1 [Example 16]
Ki (read-out: Ki < 0.5 μM): < 0.5 µM | Ki (read-out: Ki < 5 μM): < 5 µM

O=c1c2sccc2nc(-c2ccc(-c3ccccc3)cc2)n1CCc1ccc(Cl)c(Cl)c1 [Example 7]
Ki (read-out: Ki < 0.5 μM): < 0.5 µM | Ki (read-out: Ki < 5 μM): < 5 µM

COc1ccccc1CCn1c(-c2ccc(-c3ccccc3)cc2)nc2ccsc2c1=O [Example 1]
Ki (read-out: Ki < 5 μM): < 5 µM

O=c1c2ccsc2nc(-c2ccc(-c3ccccc3)cc2)n1CCN1CCCCC1 [Example 49]
Ki (read-out: Ki < 0.5 μM): < 0.5 µM | Ki (read-out: Ki < 5 μM): < 5 µM

O=c1c2sccc2nc(-c2ccc(-c3ccc(Cl)c(Cl)c3)cc2)n1CCN1CCCCC1 [Example 56]
Ki (read-out: Ki < 0.5 μM): < 0.5 µM | Ki (read-out: Ki < 5 μM): < 5 µM

O=c1c2sc3ccccc3c2nc(-c2ccc(-c3ccccc3)cc2)n1CCC1CCOCC1 [Example 22]
Ki (read-out: Ki < 5 μM): < 5 µM

Cc1cccc(-c2ccc(-c3nc4ccsc4c(=O)n3CCN3CCCCC3)cc2)c1 [Example 62]
Ki (read-out: Ki < 0.5 μM): < 0.5 µM | Ki (read-out: Ki < 5 μM): < 5 µM

O=c1c2sccc2nc(-c2ccc(C3CCCCC3)cc2)n1CCN1CCCCC1 [Example 36]
Ki (read-out: Ki < 0.5 μM): < 0.5 µM | Ki (read-out: Ki < 5 μM): < 5 µM

Cc1cc2nc(-c3ccc(-c4ccccc4)cc3)n(CCN3CCCCC3)c(=O)c2s1 [Example 61]
Ki (read-out: Ki < 0.5 μM): < 0.5 µM | Ki (read-out: Ki < 5 μM): < 5 µM

O=c1c2sccc2nc(-c2ccc(-c3ccccc3Cl)cc2)n1CCN1CCCCC1 [Example 64]
Ki (read-out: Ki < 0.5 μM): < 0.5 µM | Ki (read-out: Ki < 5 μM): < 5 µM

Cc1ccccc1-c1ccc(-c2nc3ccsc3c(=O)n2CCN2CCCCC2)cc1 [Example 54]
Ki (read-out: Ki < 0.5 μM): < 0.5 µM | Ki (read-out: Ki < 5 μM): < 5 µM

O=c1c2ccsc2nc(-c2ccc(-c3ccccc3)cc2)n1CCC1CCOCC1 [Example 47]
Ki (read-out: Ki < 5 μM): < 5 µM

COc1cccc(-c2ccc(-c3nc4cc(C)sc4c(=O)n3CCN3CCCCC3)cc2)c1 [Example 88]
Ki (read-out: Ki < 0.5 μM): < 0.5 µM | Ki (read-out: Ki < 5 μM): < 5 µM

O=c1c2sc3ccccc3c2nc(-c2ccc(-c3ccccc3)cc2)n1CCN1CCCCC1 [Example 44]
Ki (read-out: Ki < 0.5 μM): < 0.5 µM | Ki (read-out: Ki < 5 μM): < 5 µM

O=c1c2sccc2nc(C2CCC(c3ccccc3)CC2)n1CCN1CCCCC1 (stereo not drawn) [Example 53]
Ki (read-out: Ki < 0.5 μM): < 0.5 µM | Ki (read-out: Ki < 5 μM): < 5 µM

Cc1cc2nc(-c3ccc(-c4cccc(C(F)(F)F)c4)cc3)n(CCN3CCCCC3)c(=O)c2s1 [Example 87]
Ki (read-out: Ki < 0.5 μM): < 0.5 µM | Ki (read-out: Ki < 5 μM): < 5 µM

O=c1c2sccc2nc(-c2ccc(-c3ccccc3)cc2)n1CCC1C[C@H]2CC[C@@H]1C2 (stereo partly drawn) [Example 59]
Ki (read-out: Ki < 5 μM): < 5 µM

Cc1sc2c(=O)n(CCN3CCCCC3)c(-c3ccc(-c4ccccc4)cc3)nc2c1C [Example 55]
Ki (read-out: Ki < 0.5 μM): < 0.5 µM | Ki (read-out: Ki < 5 μM): < 5 µM

O=c1c2sccc2nc(-c2ccc3[nH]c4ccccc4c3c2)n1CCN1CCCCC1 [Example 52]
Ki (read-out: Ki < 5 μM): < 5 µM

O=C1c2ccccc2C(=O)c2cc(-c3nc4ccsc4c(=O)n3CCN3CCCCC3)ccc21 [Example 25]
Ki (read-out: Ki < 0.5 μM): < 0.5 µM | Ki (read-out: Ki < 5 μM): < 5 µM

O=c1c2sccc2nc(-c2ccc(-c3cccs3)cc2)n1CCC1CCOCC1 [Example 19]
Ki (read-out: Ki < 5 μM): < 5 µM

O=c1c2sccc2nc(-c2ccc(-c3cccc(F)c3)cc2)n1CCN1CCCCC1 [Example 63]
Ki (read-out: Ki < 0.5 μM): < 0.5 µM | Ki (read-out: Ki < 5 μM): < 5 µM

O=c1c2sccc2nc(-c2ccc(-c3cccs3)cc2)n1CCc1ccccc1 [Example 20]
Ki (read-out: Ki < 0.5 μM): < 0.5 µM | Ki (read-out: Ki < 5 μM): < 5 µM

CC(C)(C)c1ccc(-c2ccc(-c3nc4ccsc4c(=O)n3CCN3CCCCC3)cc2)cc1 [Example 41]
Ki (read-out: Ki < 5 μM): < 5 µM

O=c1c2sccc2nc(-c2ccc(-c3ccccc3)c(F)c2)n1CCN1CCCCC1 [Example 67]
Ki (read-out: Ki < 0.5 μM): < 0.5 µM | Ki (read-out: Ki < 5 μM): < 5 µM

Cc1cccc(-c2ccc(-c3nc4cc(C)sc4c(=O)n3CCN3CCCCC3)cc2)c1 [Example 84]
Ki (read-out: Ki < 0.5 μM): < 0.5 µM | Ki (read-out: Ki < 5 μM): < 5 µM

O=c1c2sccc2nc(-c2ccc(-c3cccc(C(F)(F)F)c3)cc2)n1CCN1CCCCC1 [Example 74]
Ki (read-out: Ki < 0.5 μM): < 0.5 µM | Ki (read-out: Ki < 5 μM): < 5 µM

O=c1c2sccc2nc(-c2ccc(Cc3ccccc3)cc2)n1CCN1CCCCC1 [Example 32]
Ki (read-out: Ki < 0.5 μM): < 0.5 µM | Ki (read-out: Ki < 5 μM): < 5 µM

CC(C)(C)c1cc2nc(-c3ccc(-c4ccccc4)cc3)n(CCN3CCCCC3)c(=O)c2s1 [Example 57]
Ki (read-out: Ki < 5 μM): < 5 µM

O=c1c2sccc2nc(-c2ccc(-c3ccccc3)cc2)n1CCN1CCCCC1 [Example 24]
Ki (read-out: Ki < 0.5 μM): < 0.5 µM | Ki (read-out: Ki < 5 μM): < 5 µM

O=c1c2sccc2nc(-c2ccc(-c3ccccc3F)cc2)n1CCN1CCCCC1 [Example 69]
Ki (read-out: Ki < 0.5 μM): < 0.5 µM | Ki (read-out: Ki < 5 μM): < 5 µM

O=c1c2sccc2nc(-c2ccc(-c3ccccc3)cc2)n1CCc1ccccc1 [Example 13]
Ki (read-out: Ki < 0.5 μM): < 0.5 µM | Ki (read-out: Ki < 5 μM): < 5 µM

Cc1cc2nc(-c3ccc(-c4ccccc4C)cc3)n(CCN3CCCCC3)c(=O)c2s1 [Example 68]
Ki (read-out: Ki < 0.5 μM): < 0.5 µM | Ki (read-out: Ki < 5 μM): < 5 µM

Cc1cc2nc(-c3ccc(-c4c(Cl)cccc4Cl)cc3)n(CCN3CCCCC3)c(=O)c2s1 [Example 90]
Ki (read-out: Ki < 0.5 μM): < 0.5 µM | Ki (read-out: Ki < 5 μM): < 5 µM

COc1cccc(-c2ccc(-c3nc4ccsc4c(=O)n3CCN3CCCCC3)cc2)c1 [Example 89]
Ki (read-out: Ki < 0.5 μM): < 0.5 µM | Ki (read-out: Ki < 5 μM): < 5 µM

Cc1cc2nc(-c3ccc(-c4ccccc4F)cc3)n(CCN3CCCCC3)c(=O)c2s1 [Example 78]
Ki (read-out: Ki < 0.5 μM): < 0.5 µM | Ki (read-out: Ki < 5 μM): < 5 µM

Cc1cc2nc(-c3ccc(-c4ccccc4C(F)(F)F)cc3)n(CCN3CCCCC3)c(=O)c2s1 [Example 83]
Ki (read-out: Ki < 0.5 μM): < 0.5 µM | Ki (read-out: Ki < 5 μM): < 5 µM

Cc1cc(C)cc(-c2ccc(-c3nc4ccsc4c(=O)n3CCN3CCCCC3)cc2)c1 [Example 80]
Ki (read-out: Ki < 0.5 μM): < 0.5 µM | Ki (read-out: Ki < 5 μM): < 5 µM

O=c1c2sccc2nc(-c2ccc(-c3ccccc3)cc2)n1CCC1=CCCCC1 [Example 71]
Ki (read-out: Ki < 0.5 μM): < 0.5 µM | Ki (read-out: Ki < 5 μM): < 5 µM

CC1CCN(CCn2c(-c3ccc(-c4ccccc4)cc3)nc3ccsc3c2=O)CC1 [Example 43]
Ki (read-out: Ki < 0.5 μM): < 0.5 µM | Ki (read-out: Ki < 5 μM): < 5 µM

Cc1cccc(C)c1-c1ccc(-c2nc3ccsc3c(=O)n2CCN2CCCCC2)cc1 [Example 81]
Ki (read-out: Ki < 0.5 μM): < 0.5 µM | Ki (read-out: Ki < 5 μM): < 5 µM

CC1CCCN(CCn2c(-c3ccc(-c4ccccc4)cc3)nc3ccsc3c2=O)C1 (stereo not drawn) [Example 42]
Ki (read-out: Ki < 0.5 μM): < 0.5 µM | Ki (read-out: Ki < 5 μM): < 5 µM

COc1ccc(CCn2c(-c3ccc(-c4ccccc4)cc3)nc3ccsc3c2=O)cc1OC [Example 2]
Ki (read-out: Ki < 5 μM): < 5 µM

O=c1c2sccc2nc(-c2ccc(-c3ccccc3)cc2)n1CCN1CCCCCC1 [Example 34]
Ki (read-out: Ki < 0.5 μM): < 0.5 µM | Ki (read-out: Ki < 5 μM): < 5 µM

O=c1c2sccc2nc(-c2ccc(-c3ccccc3)cc2)n1CCC1CCCCC1 [Example 11]
Ki (read-out: Ki < 0.5 μM): < 0.5 µM | Ki (read-out: Ki < 5 μM): < 5 µM

Cc1cc2nc(-c3ccc(-c4cccc(Cl)c4)cc3)n(CCN3CCCCC3)c(=O)c2s1 [Example 86]
Ki (read-out: Ki < 0.5 μM): < 0.5 µM | Ki (read-out: Ki < 5 μM): < 5 µM

O=c1c2sccc2nc(-c2ccc(-c3cccs3)cc2)n1CCN1CCOCC1 [Example 40]
Ki (read-out: Ki < 0.5 μM): < 0.5 µM | Ki (read-out: Ki < 5 μM): < 5 µM

Cc1ccccc1CCn1c(-c2ccc(-c3ccccc3)cc2)nc2ccsc2c1=O [Example 8]
Ki (read-out: Ki < 5 μM): < 5 µM

O=c1c2sccc2nc(-c2ccc(C3CCCCC3)cc2)n1CCc1ccccc1 [Example 18]
Ki (read-out: Ki < 0.5 μM): < 0.5 µM | Ki (read-out: Ki < 5 μM): < 5 µM

O=c1c2sccc2nc(-c2ccc(C3CCCCC3)cc2)n1CCN1CCCCCC1 [Example 38]
Ki (read-out: Ki < 0.5 μM): < 0.5 µM | Ki (read-out: Ki < 5 μM): < 5 µM

O=c1c2sccc2nc(-c2ccc(-c3ccccc3C(F)(F)F)cc2)n1CCN1CCCCC1 [Example 66]
Ki (read-out: Ki < 0.5 μM): < 0.5 µM | Ki (read-out: Ki < 5 μM): < 5 µM

Cc1cc2nc(-c3ccc(-c4c(C)cccc4C)cc3)n(CCN3CCCCC3)c(=O)c2s1 [Example 91]
Ki (read-out: Ki < 0.5 μM): < 0.5 µM | Ki (read-out: Ki < 5 μM): < 5 µM

O=c1c2sccc2nc(-c2ccc(-c3ccccc3)cc2)n1CCC1CCOCC1 [Example 12]
Ki (read-out: Ki < 0.5 μM): < 0.5 µM | Ki (read-out: Ki < 5 μM): < 5 µM
